Results from PMC10856758, “New Dual Inhibitors of Tyrosyl-DNA Phosphodiesterase 1 and 2 Based on Deoxycholic Acid: Design, Synthesis, Cytotoxicity, and Molecular Modeling” (Molecules, 2024).
Where two headings read alike, the source gives them in different places.

Experiments:
TDP2 [1] = molecular target: T1, TDP2 (Homo sapiens, UniProt O95551); test: Gel-based TDP2 activity assay (removal of 5'-tyrosine, PAGE); type: biochemical; settings: for remaining activity at 500 µM: read-out: TDP2, % (residual activity of TDP2); for IC50: 200 nM TDP2, 100 nM substrate, 15 min 37 °C
T1 sequence (O95551 1-362): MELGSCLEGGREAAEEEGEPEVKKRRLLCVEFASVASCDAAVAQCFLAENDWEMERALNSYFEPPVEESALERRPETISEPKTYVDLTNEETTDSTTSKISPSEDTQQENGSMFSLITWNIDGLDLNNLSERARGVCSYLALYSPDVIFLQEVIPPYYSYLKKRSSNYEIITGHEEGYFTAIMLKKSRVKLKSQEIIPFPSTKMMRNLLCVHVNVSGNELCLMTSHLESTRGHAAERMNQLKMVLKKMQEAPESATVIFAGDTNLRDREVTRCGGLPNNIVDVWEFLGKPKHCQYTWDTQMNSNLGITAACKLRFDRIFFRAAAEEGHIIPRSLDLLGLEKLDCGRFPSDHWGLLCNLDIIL
Protocol: We investigated the activity against the TDP2 enzyme of compounds 3d–f and 4a–e at 500 μM (Table 1). The basis for testing TDP 2 was its ability to remove a tyrosine residue from the 5’ end of an oligonucleotide substrate. The TDP2 reaction products were separated in a polyacrylamide gel (PAGE) with formamide denaturation.
TDP2 activity was detected as described in [42]. We separated the products of the reaction of cleavage of the tyrosine residue from the 5′-end of the 3e FAM-labeled oligonucleotide in a polyacrylamide gel under denaturing conditions. […] The reaction mixtures contained TDP1 buffer ([…] Tris-HCl pH 8.0, 40 mM NaCl, 1 mM DTT, 0.05 mg/mL BSA (Sigma-Aldrich, St. Luis, MO, USA)), 100 nM oligonucleotide substrate, and inhibitors. The reaction was triggered by adding TDP2 to a final concentration of 200 nM.
The reaction mixtures were incubated for 15 min at 37 °C. The reaction products were analyzed using Typhoon FLA 9500 phosphorimager (GE Healthcare, Boston, MA, USA). Each experiment was carried out in three independent replicates. The data were analyzed with QuantityOne 4.6.7 software.

TDP1 [2] = molecular target: T2, TDP1 (Homo sapiens, UniProt Q9NUW8); test: TDP1 activity, real-time fluorescence oligonucleotide biosensor (FAM/BHQ1); type: biochemical; settings: 1.5 nM TDP1, 50 nM biosensor
T2 sequence (Q9NUW8 whole entry): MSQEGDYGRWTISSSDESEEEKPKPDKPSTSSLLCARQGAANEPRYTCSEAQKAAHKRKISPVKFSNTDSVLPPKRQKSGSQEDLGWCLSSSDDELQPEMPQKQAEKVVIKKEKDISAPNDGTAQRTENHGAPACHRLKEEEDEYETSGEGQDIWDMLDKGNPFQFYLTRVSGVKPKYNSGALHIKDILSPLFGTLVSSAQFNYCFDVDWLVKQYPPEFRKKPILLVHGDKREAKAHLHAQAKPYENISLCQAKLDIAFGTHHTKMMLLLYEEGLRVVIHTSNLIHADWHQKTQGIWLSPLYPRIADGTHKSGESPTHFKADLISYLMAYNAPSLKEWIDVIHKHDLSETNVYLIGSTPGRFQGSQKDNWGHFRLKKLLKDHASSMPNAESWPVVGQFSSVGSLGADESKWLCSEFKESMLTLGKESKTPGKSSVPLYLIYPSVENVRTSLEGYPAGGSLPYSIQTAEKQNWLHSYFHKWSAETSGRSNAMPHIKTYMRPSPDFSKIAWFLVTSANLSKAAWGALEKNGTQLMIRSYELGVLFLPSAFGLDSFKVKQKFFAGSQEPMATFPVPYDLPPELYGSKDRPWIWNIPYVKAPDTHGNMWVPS
From the text: To detect TDP1 activity in real time, we used an oligonucleotide biosensor based on the ability of TDP1 to remove fluorophore quenchers from the 3’ end of DNA [29]. The hexadecamer oligonucleotide carried 5(6)-carboxyfluorescein (FAM) at the 5’ end as a fluorophore and Black Hole Quencher-1 (BHQ1) at the 3’ end as a fluorophore quencher. TDP1 inhibitors prevent the removal of fluorophore quenchers, resulting in a decrease in fluorescence intensity.
TDP1 activity was detected as described in [31]. We measured the fluorescence intensity after quencher cleavage via a fluorophore quencher–coupled DNA oligonucleotide […]. The reaction mixtures contained TDP1 buffer (50 mM Tris, HCl pH 8.0, 50 mM NaCl, and 7 mM β-mercaptoethanol), 50 nM biosensor, and different concentrations of inhibitors. The reaction was triggered by adding TDP1 to a final concentration of 1.5 nM. The fluorophore quencher–coupled DNA oligonucleotide was synthesized in the Laboratory of Nucleic Acid Chemistry at the Institute of Chemical Biology and Fundamental Medicine (Novosibirsk, Russia).
The reaction mixtures were incubated at room temperature in a 96-well plate, and fluorescence was measured using the POLARstar OPTIMA fluorimeter (BMG LABTECH, GmbH, Ortenberg, Germany) every 55 s during the linear phase (here, data from minute 0 to minute 8). […] Data calculation was carried out using the software MARS Data Analysis 2.0 (BMG LABTECH, Ortenberg, Germany).

in vitro = settings: human, HeLa CC50
Protocol: (§1) Topotecan (TOP1 inhibitor) and etoposide (TOP2 inhibitor) were used to study the effect combined with DCA derivatives on the metabolic activity of cells. […] Topotecan (0.5 µM) and etoposide (5 µM) were used at a concentration with low toxicity (>70% of living cells), selected based on preliminary experiments.
(§2) The cells were seeded in 96-well plates in quadruplicates at 3 × 10^3 cells/well. The cells were grown in Dulbecco’s Modified Eagle—Medium (DMEM) (AppliChem, Darmstadt, Germany) with Antibiotic-Antimycotic (100 IU/mL penicillin, 0.1 μg/mL streptomycin, 0.25 µg/mL amphotericin) (1×) (Gibco, Grand Island, NE, USA) and 10% of fetal bovine serum (Gibco, Grand Island, NE, USA) in a 5% CO2 atmosphere at 37 °C. After the formation of a 50% monolayer, tested compounds were added to the medium, and the cell culture was monitored for 72 h at 37 °C. DCA derivatives were dissolved in 100% DMSO and topotecan/etoposide in water. Control cells were grown in the presence of the same volume of DMSO, those cells with the investigated compound. […] (MTT) solution (10 μL, 5 mg/mL) were added to each well and the cells were incubated for an additional 2 h. Then, the medium was removed from the wells, and 100 μL of iso-propanol was added to dissolve blue formazan crystals formed within live cells; the optical density was measured at test and reference wavelengths (570 nm and 620 nm, respectively) using CLARIOstar fluorimeter (BMG LABTECH, GmbH, Ortenberg, Germany). The experiments were repeated at least three times.

TDP1 [3] = molecular target: T2, TDP1; design: method as in PMID 33221302; settings: earlier DCA derivatives; cited from earlier work
TDP2 [4] = molecular target: T1, TDP2; design: method as in PMID 35011303; settings: at ~1 mM concentration; cited from earlier work
HeLa cells [5] = settings: human, 72 h
Protocol: as §1, §2

HeLa cells [6] = test: MTT assay, combination with topotecan or etoposide; type: cell-based, human; settings: with 0.5 μM topotecan or 5 µM etoposide
Protocol: Next, the ability of the selected compounds to enhance the cytotoxic effect of topotecan and etoposide on the HeLa cell line was studied. CC50 values (50% cytotoxic concentration) were also calculated for the test compounds in the presence of topotecan or etoposide at fixed concentrations. For evaluation, three independent MTT assays were performed as described above with test substances in combination with topotecan at a final concentration of 0.5 μM and etoposide at a final concentration of 5 μM per well.
Figure 2 The combined action of compounds 3d–e and 4d–e with 0.5 μM topotecan (Tpc, (A)) and 5 µM etoposide (Eto, (B)) on the survival of HeLa cells. The error bars show standard deviations.

HeLa cells [7] = test: MTT cytotoxicity/antiproliferative assay; settings: low-toxicity concentration, preliminary experiments
Protocol: as §1, §2

[8] = MTT cytotoxicity/antiproliferative assay; settings: human, HeLa cells, HeLa CC50, 72 h of treatment, MTT assay
Protocol: as §1, §2

| SMILES | melting point | remaining activity at 500 µM (TDP2 [1]; at 500 µM compound) [%] | IC50 (TDP1 [2]) [µM] | CC50 at 72 h (in vitro) [µM] | further results |
| --- | --- | --- | --- | --- | --- |
| CC(CCC(=O)O)C1CCC2C3CCC4CC(O)(CSc5ccncc5)CCC4(C)C3CC(O)C12C (stereo not drawn) [3a, 3β,12α-Dihydroxy-3α-((pyrydin-4-ylthio)methyl)-5β-cholan-24-oic Acid] | 119.6 °C (dec.) | 92 ± 3 | 22 ± 2 | – | – |
| CC(CCC(=O)O)C1CCC2C3CCC4CC(O)(CSc5nccn5C)CCC4(C)C3CC(O)C12C (stereo not drawn) [3b, 3β,12α-Dihydroxy-3α-((1-methyl-1H-imidazol-2-ylthio)methyl)-5β-cholan-24-oic Acid] | 119.9 °C (dec.) | ≥ 100 | 30 ± 7 | – | – |
| CC(CCC(=O)O)C1CCC2C3CCC4CC(O)(CSc5nc[nH]n5)CCC4(C)C3CC(O)C12C (stereo not drawn) [3c, 3β,12α-Dihydroxy-3α-((1H-1,2,4-triazol-5-ylthio)methyl)-5β-cholan-24-oic Acid] | 95.1 to 98.4 °C | ≥ 100 | 32 ± 4 | – | – |
| Cc1ccc2[nH]c(SCC3(O)CCC4(C)C(CCC5C4CC(O)C4(C)C(C(C)CCC(=O)O)CCC54)C3)nc2c1 (stereo not shown) [3d] | 188.9 °C (dec.) | ~25 | 25 ± 4 | 63 ± 6 | IC50 (TDP2 [1]): 250 ± 30 µM; TDP2, % (residual activity of TDP2) (TDP2 [1]; at 500 µM compound, 500 µM): 24 ± 5% |
| CC(CCC(=O)O)C1CCC2C3CCC4CC(O)(CSc5nc6ccccc6s5)CCC4(C)C3CC(O)C12C (stereo not shown) [3e] | 106.2 °C (dec.) | ~2 | 14 ± 2 | 75 ± 13 | IC50 (TDP2 [1]): 76 ± 13 µM |
| COC1CCC2(C)C(CCC3C2CC(OC)C2(C)C(C(C)CCC(=O)Nc4ccc(Br)cc4)CCC32)C1 (stereo not drawn) [3α,12α-bis-methoxy deoxycholic para-bromoanilide] | – | – | – | – | IC50 (TDP1 [3]): 0.27 µM; TDP1 IC50 (TDP1 [3]): submicromolar range |
| CC(CCC(=O)NCCc1c[nH]c2ccccc12)C1CCC2C3CCC4CC(OCc5ccccc5)CCC4(C)C3CC(O)C12C (stereo not drawn) [3α-benzyloxy deoxycholic tryptamide] | – | – | – | – | IC50 (TDP1 [3]): 0.24 µM; TDP1 IC50 (TDP1 [3]): submicromolar range; TDP2 residual activity (TDP2 [4]): less than 50% |
| COC(=O)CCC(C)C1CCC2C3CCC4CC(O)(CSc5nc6cc(C)ccc6[nH]5)CCC4(C)C3CC(O)C12C (stereo not shown) [4d] | 112.1 °C (dec.) | ~14 | 0.94 ± 0.04 | 50 ± 13 | IC50 (TDP2 [1]): 218 ± 7 µM |
| COC(=O)CCC(C)C1CCC2C3CCC4CC(O)(CSc5nc6ccccc6s5)CCC4(C)C3CC(O)C12C (stereo not shown) [4e] | 74.5 °C (dec.) | ~49 | 0.63 ± 0.03 | > 75 | CC50 (HeLa cells [5]): > 100 µM; combined cytotoxic effect / cell survival under drug combinations (HeLa cells [6]): most noticeable combined cytotoxic effect with both topotecan and etoposide |
| COC(=O)CCC(C)C1CCC2C3CCC4CC(O)(CSc5nc6ccccc6o5)CCC4(C)C3CC(O)C12C (stereo not shown) [4f] | 75 °C (dec.) | ≥ 100 | 1.8 ± 0.5 | – | – |
| COc1cc([C@@H]2c3cc4c(cc3[C@@H](O[C@@H]3O[C@@H]5CO[C@@H](C)O[C@H]5[C@H](O)[C@H]3O)[C@H]3COC(=O)[C@H]23)OCO4)cc(OC)c1O [Etoposide] | – | – | – | – | living cells (HeLa cells [7]; etoposide alone at 5 µM): > 70%; CC50 at 72 h [8]: 6.2 ± 0.6 µM |
| CC[C@@]1(O)C(=O)OCc2c1cc1n(c2=O)Cc2cc3c(CN(C)C)c(O)ccc3nc2-1 [Topotecan] | – | – | – | – | living cells (HeLa cells [7]; topotecan alone at 0.5 µM): > 70%; CC50 at 72 h [8]: 0.9 ± 0.1 µM |
